# Patent EP4389751A1, “HETEROCYCLIC COMPOUNDS AND USES THEREOF” (Kumquat Biosciences Inc., priority 2021, dated 2024)
# Columns and labels:
# [1] = biological target: T1, K-Ras G12S (Homo sapiens, UniProt P01116, G12S); assay: HTRF assay of the K-Ras / SOS1 interaction; assay type: biochemical; conditions: IC50 (against K-Ras G12D) to IC50 (against K-Ras G12S)
# T1 construct: made in house; host or cells: E. coli (e.g., BL21 (DE3))
# Outline: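 Compounds (duplicates, 10 µM to 0.01 µM) were incubated ≥~10 min with Eu-labelled GST-K-Ras G12S and XL665-labelled His-hSOS1 in HEPES pH 7.4 buffer containing NaCl, DTT, BSA and Igepal. Disruption measured as HTRF emission ratio 665/620 nm, fitted to IC50.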
# [2] = biological target: T2, KRAS protein (His-tagged GDP-loaded G12S 1-169) (Homo sapiens, UniProt P01116, G12S); assay: Covalent modification of KRAS protein, intact-protein LC-MS; assay type: binding; conditions: 24hrs at room temperature, KRAS protein ~2 µM
# T2 construct: His-tagged GDP-loaded G12S 1-169
# T2 sequence (P01116 1-169 isoform P01116-2 G12S): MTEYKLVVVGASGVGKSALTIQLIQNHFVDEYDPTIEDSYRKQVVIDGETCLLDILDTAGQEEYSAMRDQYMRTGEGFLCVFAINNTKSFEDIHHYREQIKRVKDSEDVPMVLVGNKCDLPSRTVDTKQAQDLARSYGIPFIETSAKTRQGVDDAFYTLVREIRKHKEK
# Outline: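 Percent covalent modification derives from deconvoluted intact-mass intensities of compound-adducted versus unmodified KRAS, measured by LC-ESI-MS. Before analysis, ~2 µM GDP-loaded His-KRAS 1-169 was exposed to compound for 24 h at room temperature and acidified with formic acid.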
# [3] = test system: GP2D cells; assay: Cell proliferation assay (CellTiter-Glo), K-Ras G12D cells; assay type: cell-based; conditions: GP2D cells (K-Ras G12D); read-out: Inhibition of GP2D Cells (IC50)
# Outline: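 CellTiter-Glo luminescence, taken roughly 5 days after dosing, measured growth of G12D-mutant GP2D cells in DMEM/2 mM glutamine/10% FBS. Compound dilution series (e.g., 9 points, 3-fold) added the day after plating. Four-parameter fitting gave IC50.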
# [4] = Metabolic (microsomal) stability assay; assay type: in vitro ADME; conditions: mouse and/or human liver microsomal metabolism assays; greater than 10, 20, 30, 40, 50, 60 mins or longer; 0.5 µM
# Protocol: All incubations are conducted in duplicate. […] Supernatants (40 µL) are transferred into clean 96-deep well plates.
# The column temperature is maintained at 40 °C.
# (Ct)/(C0) = e^−kt [formula]
# T1 sequence (P01116 1-188 isoform P01116-2 G12S): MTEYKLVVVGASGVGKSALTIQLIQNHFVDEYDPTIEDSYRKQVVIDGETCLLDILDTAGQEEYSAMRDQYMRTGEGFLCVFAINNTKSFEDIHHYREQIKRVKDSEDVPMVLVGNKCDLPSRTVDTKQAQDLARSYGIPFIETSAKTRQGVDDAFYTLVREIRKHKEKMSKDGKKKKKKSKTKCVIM
compound,measurement,setting,value
N#Cc1c(N)sc2c(F)ccc(-c3c(Cl)cc4c(N5CC6CCC(C5)N6C(=O)n5ncnc5Cl)nc(OC[C@@]56CCCN5C[C@H](F)C6)nc4c3F)c12 [Compound A194],Ratio of IC50 KRAS G12D vs. IC50 KRAS G12S,[1],A (A: indicates that the ratio of IC50 against KrasG12D vs. IC50 against KrasG12S is 1-fold or greater)
same,% G12S Modification at 24 hr.,[2],++ (++ indicates between about 1%- 20% labelling)
same,IC50,[3],≤ 1000 nM
same,T1/2,[4],greater than 10 mins
